Among the data in US11447493B2 (Kinnate Biopharma Inc., priority 2018, dated 2022) are IC50 values, retold here.

The structures appear in SMILES notation.

Experiment [1] concerns the target CDK12 (Homo sapiens (Human), UniProt Q9NYV4). Description: Radiometric protein kinase assay (33PanQinase), Assay Condition B (thiol-free). The class given is biochemical. As to conditions: thiol-free (1 mM TCEP). The protocol: The IC50 profile of compounds was determined using one protein kinase in a customized, thiol free assay. […] Prior to testing, the 1×10^−03 M stock solutions in column 2 of the master plates were subjected to a serial, semi-logarithmic dilution using 100% DMSO as a solvent. […] Column 1 and 7 were filled with 100% DMSO as controls. Subsequently, 2×10 microliter from each well of the serial diluted copy plates were aliquoted with a 96 channel pipettor into two identical sets of “compound dilution plates”. All plates were barcoded for automated identification and tracking purposes. […] All compounds were stored as powder until being solubilized in DMSO. Solubilized compounds were stored as 1×10^−02M/100% DMSO stock solutions. Prior to the assay process, 90 microliters of H2O were added to each well of a set of compound dilution plates. To minimize potential precipitation, the H2O was added to each plate only a few minutes before the transfer of the compound solutions into the assay plates. Each plate was shaken thoroughly, resulting in compound dilution plates with a final of 10% DMSO. For each assay, 5 microliters of solution from each well of the compound dilution plates/10% DMSO were transferred into the assay plate. The final volume of the assay was 50 μl. All compounds were tested at 10 final assay concentrations in the range from 1×10^−05M to 3×10^−10 M, in singlicate. The final DMSO concentration in the reaction cocktails was 1% in all cases. […] This was done so there would be no interference with the key cysteines in the proteins of interest.
For data analysis, the median value of the counts in column 1 (n=8) of each assay plate was defined as “low control”. This value reflects unspecific binding of radioactivity to the plate in the absence of a protein kinase but in the presence of the substrate. The median value of the counts in column 7 of each assay plate (n=8) was taken as the “high control”, i.e. full activity in the absence of any inhibitor. The difference between high and low control was taken as 100% activity. As part of the data evaluation the low control value from a particular plate was subtracted from the high control value as well as from all 80 “compound values” of the corresponding plate. The residual activity (in %) for each well of a particular plate was calculated by using the following formula: Res. Activity (%)=100×[(cpm of compound−low control)/(high control−low control)]
The fitting method used was a least-squares fit.

For experiment [2], the target named is CDK2 (Homo sapiens (Human), UniProt P24941). The experiment is described as above. In kind it is biochemical. As to conditions: thiol-free (1 mM TCEP). The protocol: The IC50 profile of compounds was determined using one protein kinase in a customized, thiol free assay. […] Prior to testing, the 1×10^−03 M stock solutions in column 2 of the master plates were subjected to a serial, semi-logarithmic dilution using 100% DMSO as a solvent. […] Column 1 and 7 were filled with 100% DMSO as controls. Subsequently, 2×10 microliter from each well of the serial diluted copy plates were aliquoted with a 96 channel pipettor into two identical sets of “compound dilution plates”. All plates were barcoded for automated identification and tracking purposes. […] All compounds were stored as powder until being solubilized in DMSO. Solubilized compounds were stored as 1×10^−02M/100% DMSO stock solutions. Prior to the assay process, 90 microliters of H2O were added to each well of a set of compound dilution plates. To minimize potential precipitation, the H2O was added to each plate only a few minutes before the transfer of the compound solutions into the assay plates. Each plate was shaken thoroughly, resulting in compound dilution plates with a final of 10% DMSO. For each assay, 5 microliters of solution from each well of the compound dilution plates/10% DMSO were transferred into the assay plate. The final volume of the assay was 50 μl. All compounds were tested at 10 final assay concentrations in the range from 1×10^−05M to 3×10^−10 M, in singlicate. The final DMSO concentration in the reaction cocktails was 1% in all cases. […]
For data analysis, the median value of the counts in column 1 (n=8) of each assay plate was defined as “low control”. This value reflects unspecific binding of radioactivity to the plate in the absence of a protein kinase but in the presence of the substrate. […] The residual activity (in %) for each well of a particular plate was calculated by using the following formula: Res. Activity (%)=100×[(cpm of compound−low control)/(high control−low control)]
The residual activities for each concentration and the compound IC50 values were calculated using Quattro Workflow V3.1.1 (Quattro Research GmbH, Munich, Germany; www.quattro-research.com). […]

Experiment [3] concerns the target CDK12 wt/CycK (Homo sapiens (Human), UniProt Q9NYV4). The experiment is described as follows: Radiometric protein kinase assay (33PanQinase), Assay Condition A (thiol containing). The note with it: thiol containing (1.2 mM DTT), ATP 0.3 μM. The class given is biochemical. The method in brief:
(§1)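 Recombinant human kinases assayed radiometrically (33PanQinase) with 33P-ATP incorporation into substrate, 60 min at 30° C, thiol-containing buffer, 1% DMSO final. Ten concentrations from 1×10^−04M to 3×10^−09M tested in singlicate. Residual activity normalized to no-enzyme and no-inhibitor controls; IC50 by least-squares fit.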

Experiment [4] addresses CDK7/CycH/MAT1 (Homo sapiens (Human), UniProt P50613). Described as above. In kind it is biochemical. The note with it: thiol containing (1.2 mM DTT), ATP 3.0 μM. The essentials: as §1
Experiment [5] addresses CDK2/CycA2 (Homo sapiens (Human), UniProt P24941). The experiment is described as above. In kind it is biochemical. The note with it: thiol containing (1.2 mM DTT), ATP 0.3 μM. The essentials:
as §1

For experiment [6], the system named is panel of 1,151 cancer cell lines. As to conditions: in 52% of a panel of 1,151 cancer cell lines (Kwiatkowski, 2014); cited from earlier work.

Sequence of CDK12 (Q9NYV4 whole entry): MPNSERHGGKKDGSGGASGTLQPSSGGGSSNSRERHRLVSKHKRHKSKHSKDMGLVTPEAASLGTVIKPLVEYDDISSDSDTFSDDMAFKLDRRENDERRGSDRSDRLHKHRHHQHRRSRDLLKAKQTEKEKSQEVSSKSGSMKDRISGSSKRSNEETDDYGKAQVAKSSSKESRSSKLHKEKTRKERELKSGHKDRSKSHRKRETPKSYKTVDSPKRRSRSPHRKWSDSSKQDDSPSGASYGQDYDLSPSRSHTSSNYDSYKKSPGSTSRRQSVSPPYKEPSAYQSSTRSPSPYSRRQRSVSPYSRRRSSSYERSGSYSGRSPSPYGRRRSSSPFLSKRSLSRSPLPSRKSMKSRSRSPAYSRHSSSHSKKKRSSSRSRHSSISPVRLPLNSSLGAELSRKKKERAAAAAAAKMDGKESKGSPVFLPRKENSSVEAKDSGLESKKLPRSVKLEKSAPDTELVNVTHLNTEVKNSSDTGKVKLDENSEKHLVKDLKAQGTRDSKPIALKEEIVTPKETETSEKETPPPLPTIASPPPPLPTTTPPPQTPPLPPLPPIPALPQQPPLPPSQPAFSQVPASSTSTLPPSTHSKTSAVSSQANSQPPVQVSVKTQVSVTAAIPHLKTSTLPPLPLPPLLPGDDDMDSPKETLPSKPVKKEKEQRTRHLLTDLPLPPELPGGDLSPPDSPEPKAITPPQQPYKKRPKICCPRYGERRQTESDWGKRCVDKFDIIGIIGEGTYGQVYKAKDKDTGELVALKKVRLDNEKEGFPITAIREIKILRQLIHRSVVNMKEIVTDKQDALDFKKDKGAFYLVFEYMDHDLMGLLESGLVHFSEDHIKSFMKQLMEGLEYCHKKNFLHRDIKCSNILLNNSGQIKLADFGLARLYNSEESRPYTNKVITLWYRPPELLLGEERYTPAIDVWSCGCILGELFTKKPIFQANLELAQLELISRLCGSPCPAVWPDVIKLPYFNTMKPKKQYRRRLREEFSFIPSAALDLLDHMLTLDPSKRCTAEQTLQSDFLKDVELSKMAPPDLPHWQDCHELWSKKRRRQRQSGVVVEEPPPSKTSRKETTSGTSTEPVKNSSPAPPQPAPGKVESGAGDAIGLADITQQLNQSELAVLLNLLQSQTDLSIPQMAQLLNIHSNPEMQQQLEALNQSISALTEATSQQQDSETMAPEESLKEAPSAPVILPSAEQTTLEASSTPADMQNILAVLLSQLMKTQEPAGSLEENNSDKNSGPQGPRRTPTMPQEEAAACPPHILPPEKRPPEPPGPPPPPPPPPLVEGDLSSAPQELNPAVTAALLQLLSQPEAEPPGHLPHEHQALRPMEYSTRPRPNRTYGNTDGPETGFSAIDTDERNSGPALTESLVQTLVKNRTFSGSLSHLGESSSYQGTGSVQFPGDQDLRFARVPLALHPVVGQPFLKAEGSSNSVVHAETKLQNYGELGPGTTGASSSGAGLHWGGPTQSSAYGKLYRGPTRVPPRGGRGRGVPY
Sequence of CDK12 (O75909 whole entry partner): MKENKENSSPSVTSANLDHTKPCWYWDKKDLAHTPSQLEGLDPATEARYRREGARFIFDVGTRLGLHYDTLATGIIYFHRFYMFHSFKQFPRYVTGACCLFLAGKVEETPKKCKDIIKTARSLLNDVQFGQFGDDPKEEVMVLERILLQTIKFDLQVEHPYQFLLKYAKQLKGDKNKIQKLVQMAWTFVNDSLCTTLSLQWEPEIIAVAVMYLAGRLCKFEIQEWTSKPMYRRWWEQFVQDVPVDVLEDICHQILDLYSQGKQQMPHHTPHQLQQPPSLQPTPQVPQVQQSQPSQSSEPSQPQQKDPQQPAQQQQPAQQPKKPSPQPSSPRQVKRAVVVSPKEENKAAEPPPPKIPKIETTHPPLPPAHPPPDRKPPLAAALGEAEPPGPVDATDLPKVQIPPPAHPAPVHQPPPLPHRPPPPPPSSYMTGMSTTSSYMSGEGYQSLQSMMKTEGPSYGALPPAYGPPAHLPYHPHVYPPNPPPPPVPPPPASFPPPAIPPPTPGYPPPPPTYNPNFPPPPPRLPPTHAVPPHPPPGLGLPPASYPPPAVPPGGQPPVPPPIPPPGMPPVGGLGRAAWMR
Sequence of CDK12 wt/CycK (Q9NYV4 whole entry): as the sequence (Q9NYV4 whole entry) above
Sequence of CDK12 wt/CycK (O75909 whole entry partner): as the sequence (O75909 whole entry partner) above
Sequence of CDK7/CycH/MAT1 (P50613 whole entry): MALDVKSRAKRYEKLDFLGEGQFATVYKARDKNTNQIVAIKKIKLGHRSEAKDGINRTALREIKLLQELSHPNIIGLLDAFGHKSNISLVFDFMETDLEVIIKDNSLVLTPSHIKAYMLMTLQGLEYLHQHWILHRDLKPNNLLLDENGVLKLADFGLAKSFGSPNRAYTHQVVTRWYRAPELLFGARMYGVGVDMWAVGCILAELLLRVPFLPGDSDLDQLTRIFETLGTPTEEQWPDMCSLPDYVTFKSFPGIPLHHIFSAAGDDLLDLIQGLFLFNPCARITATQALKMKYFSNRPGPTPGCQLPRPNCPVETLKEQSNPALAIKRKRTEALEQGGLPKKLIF
Sequence of CDK7/CycH/MAT1 (P51946 whole entry partner): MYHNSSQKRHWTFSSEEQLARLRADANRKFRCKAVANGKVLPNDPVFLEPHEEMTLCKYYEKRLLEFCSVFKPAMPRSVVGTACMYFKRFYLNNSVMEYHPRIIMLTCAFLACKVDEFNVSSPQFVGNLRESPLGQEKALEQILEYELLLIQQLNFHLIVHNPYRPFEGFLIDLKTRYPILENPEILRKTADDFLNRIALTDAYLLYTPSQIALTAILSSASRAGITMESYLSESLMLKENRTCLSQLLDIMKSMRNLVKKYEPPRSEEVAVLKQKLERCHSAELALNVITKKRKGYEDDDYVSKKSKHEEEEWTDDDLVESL
Sequence of CDK7/CycH/MAT1 (P51948 whole entry partner): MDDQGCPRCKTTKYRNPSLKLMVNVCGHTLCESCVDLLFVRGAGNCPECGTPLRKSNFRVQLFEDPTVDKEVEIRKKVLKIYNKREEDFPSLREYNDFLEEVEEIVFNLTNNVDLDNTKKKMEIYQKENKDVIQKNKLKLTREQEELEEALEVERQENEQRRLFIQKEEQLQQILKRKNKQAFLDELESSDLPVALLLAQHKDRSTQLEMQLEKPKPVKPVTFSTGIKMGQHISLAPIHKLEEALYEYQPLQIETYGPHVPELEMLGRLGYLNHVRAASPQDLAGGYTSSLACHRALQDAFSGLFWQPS

For `C=CC(=O)Nc1ccc(C(=O)N2CC[C@@H](Nc3ncc4ccccc4n3)C2)cc1C` [Example 72, (R)—N-(2-methyl-4-(3-(quinazolin-2-ylamino)pyrrolidine-1-carbonyl)phenyl)acrylamide], the IC50 (as a rule, the midpoint of a concentration-inhibition curve) in experiment [1] was less than 100 nM; in experiment [2] it was 1000 to 10000 nM; in experiment [3] it was not above 100 nM; in experiment [4], 1000 to 10000 nM; in experiment [5], 1000 to 10000 nM.
For `C=CC(=O)Nc1ccc(C(=O)N2CC[C@@H](Nc3ncc4ccccc4n3)C2)cc1Cl` [Example 88, (R)—N-(2-chloro-4-(3-(quinazolin-2-ylamino)pyrrolidine-1-carbonyl)phenyl)acrylamide], the IC50 is less than 100 nM in experiment [1], 1000 to 10000 nM in experiment [2], not above 100 nM in experiment [3] and 1000 to 10000 nM in experiment [5].
As for `CN(C)C/C=C/C(=O)Nc1ccc(C(=O)Nc2cccc(Nc3ncc(Cl)c(-c4c[nH]c5ccccc45)n3)c2)cc1` [THZ1], the IC50 in experiment [6] is less than 200 nM.
